Columns and labels:
[1] = molecular target: T1, human lysosomal β-glucosidase (GCase) (Homo sapiens, UniProt P04062); test: GCase inhibition in human leukocyte homogenates; type: biochemical; conditions: human leukocytes extracts; for inhibition at 1000 µM / GCase Inhibition (%): compounds 1 mM; for IC50: 4-methylumbelliferyl-β-D-glucoside 3.33 mM
T1 construct: in leukocytes isolated from healthy donors (controls); endogenous in cells; host or cells: human leukocytes from healthy donors, disrupted by sonication (crude homogenate)
T1 sequence (P04062 40-536): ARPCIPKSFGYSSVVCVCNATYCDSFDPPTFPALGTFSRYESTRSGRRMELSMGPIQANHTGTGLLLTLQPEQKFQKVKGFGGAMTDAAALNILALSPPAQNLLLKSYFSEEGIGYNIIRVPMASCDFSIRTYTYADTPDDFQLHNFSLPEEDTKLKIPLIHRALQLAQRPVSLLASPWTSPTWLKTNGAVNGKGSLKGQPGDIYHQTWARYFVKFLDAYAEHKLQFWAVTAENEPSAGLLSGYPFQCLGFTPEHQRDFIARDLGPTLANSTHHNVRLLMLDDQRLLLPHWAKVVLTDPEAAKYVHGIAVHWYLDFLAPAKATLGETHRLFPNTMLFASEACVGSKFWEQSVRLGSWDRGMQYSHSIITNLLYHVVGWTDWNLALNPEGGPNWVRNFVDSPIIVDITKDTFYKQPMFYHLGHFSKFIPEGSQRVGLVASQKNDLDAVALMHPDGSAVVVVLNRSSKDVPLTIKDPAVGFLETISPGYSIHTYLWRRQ
Experimental: The new compounds were screened at 1 mM concentration towards β-galactosidase (β-Gal) and β-glucosidase (GCase) in leukocytes isolated from healthy donors (controls). Isolated leukocytes were disrupted by sonication, and a Micro BCA Protein Assay Kit (Sigma–Aldrich, St. Louis, MO, USA) was used to determine the total protein amount for the enzymatic assay, according to the manufacturer’s instructions.
GCase activity was measured in a flat-bottomed 96-well plate. Compound solution (3 µL), 4.29 µg/µL leukocytes homogenate (7 µL), and substrate 4-methylumbelliferyl-β-D-glucoside (3.33 mM, 20 µL, Sigma–Aldrich Chemie Gmbh, Munich, Germany)) in citrate/phosphate buffer (0.1:0.2, M/M, pH 5.8) containing sodium taurocholate (0.3%) and Triton X-100 (0.15%) at 37 °C were incubated for 1 h. The reaction was stopped by addition of sodium carbonate (200 µL; 0.5 M, pH 10.7) containing Triton X-100 (0.0025%), and the fluorescence of 4-methylumbelliferone released by β-glucosidase activity was measured in SpectraMax M2 Microplate Reader (λex = 365 nm and λem = 435 nm; Molecular Devices LLC, San Jose, CA, US). Percentage GCase inhibition is given with respect to the control (without compound). Data are mean SD (n = 3). For compounds showing GCase inhibitory activity higher than 80% at 1 mM concentration, the IC50 values were determined by measuring the initial hydrolysis rate with 4-methylumbelliferyl-β-D-glucoside (3.33 mM). Data obtained were fitted by using the appropriate equation (for more details, see the Supplementary Materials).
IC50 for compounds 9, 10, 12 and 21 towards human lysosomal β-glucosidase The IC50 values of inhibitors against β-glucosidase were determined by measuring the initial hydrolysis rate with 4-methylumbelliferyl-β-D-glucoside (3.33 mM). Data obtained were fitted to the following equation using the Origin Microcal program. where Vi/Vo, represent the ratio between the activity measured in the presence of the inhibitor (Vi) and the activity of the control without the inhibitor (V0), “x” the inhibitor concentration, Max and Min, the maximal and minimal enzymatic activity observed, respectively.
Figure S48: IC of compound 9 towards GCase
Figure S49: IC50 of compound 10 towards GCase
(also on this page, place not known: Min x MinMax Vo Vi slope + […] […] […] […] […] […]+ −= 1 be tween (V i) (V 0), IC50) […]

[2] = system: α-glucosidase EC 3.2.1.20; test: Commercial glycosidase screening; type: biochemical, rice; conditions: 0.1 mM inhibitor
Description: A panel of 12 commercial glycosidases (α-L-fucosidase EC 3.2.1.51 from Homo sapiens, α-galactosidase EC 3.2.1.22 from coffee beans, β-galactosidases EC 3.2.1.23 from Escherichia coli and Aspergillus oryzae, α-glucosidases EC 3.2.1.20 from yeast and rice, amyloglucosidase EC 3.2.1.3 from Aspergillus niger, β-glucosidase EC 3.2.1.21 from almonds, α-mannosidase EC 3.2.1.24 from Jack beans, β-mannosidase EC 3.2.1.25 from snail, β-N-acetylglucosaminidases EC 3.2.1.52 from Jack beans and bovine kidney) purchased from Sigma-Aldrich (St. Louis, MO, USA) or Megazyme Ltd. (Bray, Co. Wicklow, Ireland) was screened.
The percentage (%) of inhibition towards the corresponding glycosidase was determined in quadruplicate in the presence of 100 μM of the inhibitor on the well. Each enzymatic assay (final volume 0.12 mL) contains 0.01–0.5 units/mL of the enzyme (with previous calibration) and 4.2 mM aqueous solution of the appropriate p-nitrophenyl glycopyranoside (substrate) buffered to the optimal pH of the enzyme. Enzyme and inhibitor were preincubated for 5 min at room temperature, and the reaction started by addition of the substrate. After 20 min of incubation at 37 °C, the reaction was stopped by the addition of 0.1 mL of sodium borate solution (pH 9.8). The p-nitrophenolate formed was measured by visible absorption spectroscopy at 405 nm (Asys Expert 96 spectrophotometer, Biochrom Ltd., Cambridge, England). Under these conditions, the p-nitrophenolate released led to optical densities linear with both reaction time and concentration of the enzyme (for more details, see the Supplementary Materials). The IC50 value (concentration of inhibitor required for 50% inhibition of enzyme activity) was determined from plots of % inhibition vs. different inhibitor concentrations. Each point of the graph is the average of four measures. The standard deviation for each point has been also represented in the graph.

GCase Inhibition (%) ([1]; listed as C00009) | Structure (SMILES) | inhibition at 1000 µM [1] | IC50 [1] | GCase Inhibition (%) ([1]; listed as C00010) | % Inhibition at 0.1 mM, α-glucosidase rice [2] | GCase Inhibition (%) ([1]; listed as C00012) | GCase Inhibition (%) ([1]; listed as C00016)
98% | CCCCCCCCCO[C@H]1CNC[C@@H](O)[C@H]1O [compound 9, (3S, 4R, 5R)-4,5-Dihydroxy-3-(Nonyloxy) Piperidine] | > 90% | 12 ± 6 µM | – | – | – | –
– | CCCCCCCCCCCCN[C@H]1CNC[C@@H](O)[C@H]1O [compound 10, (3R, 4S, 5S)-3,4-Dihydroxy-5-(Dodecylamino) Piperidine] | > 90% | 6.4 ± 0.7 µM | 100% | - (no inhibition detected) | – | –
– | CCCCCCCC[C@]1(O)CNC[C@@H](O)[C@H]1O [compound 12, (3S, 4R, 5R)-3,4,5-Trihydroxy-3-Octyl-Piperidine] | > 90% | 60 ± 23 µM | – | - (no inhibition detected) | 93% | –
– | CCCCCCCCCO[C@@H]1CNC[C@@H](O)[C@H]1O [compound 21, (3R, 4R, 5R)-4,5-Dihydroxy-3-(Nonyloxy) Piperidine] | > 90% | 130 ± 13 µM | – | - (no inhibition detected) | – | 100%

From paper PMC7582770, “Synthesis of “All-Cis” Trihydroxypiperidines from a Carbohydrate-Derived Ketone: Hints for the Design of New β-Gal and GCase Inhibitors” (Molecules, 2020)
